target: T1, human estrogen receptor-alpha (Homo sapiens, UniProt P03372); experiment: soluble estrogen receptor-alpha (ER-α) binding assay, [3H]-estradiol competition; settings: 2-3 nM [3H]-estradiol, 4 °C for 18 hours; Cheng-Prusoff
T1 construct: made in house; host or cells: yeast strain BJ2168, copper-induced
T1 sequence (P03372 1-595): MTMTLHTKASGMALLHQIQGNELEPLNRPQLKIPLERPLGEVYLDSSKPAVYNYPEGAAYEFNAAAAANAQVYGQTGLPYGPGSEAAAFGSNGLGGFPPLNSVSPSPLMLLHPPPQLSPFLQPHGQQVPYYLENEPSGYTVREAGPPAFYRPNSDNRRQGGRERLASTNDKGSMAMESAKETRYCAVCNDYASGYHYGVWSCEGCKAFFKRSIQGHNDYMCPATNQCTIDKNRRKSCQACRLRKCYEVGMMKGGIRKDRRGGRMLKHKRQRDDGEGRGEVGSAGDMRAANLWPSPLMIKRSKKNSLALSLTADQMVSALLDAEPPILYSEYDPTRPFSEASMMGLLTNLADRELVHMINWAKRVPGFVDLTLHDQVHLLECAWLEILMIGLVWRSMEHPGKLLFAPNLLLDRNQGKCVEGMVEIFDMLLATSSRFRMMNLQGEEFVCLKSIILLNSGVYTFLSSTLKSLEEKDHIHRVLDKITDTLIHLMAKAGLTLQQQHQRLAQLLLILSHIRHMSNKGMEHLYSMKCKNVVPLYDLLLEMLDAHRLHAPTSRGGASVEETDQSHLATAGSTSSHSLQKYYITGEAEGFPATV
Excerpt: For soluble estrogen receptor-alpha (ER-α) binding assays, [^3H]- Estradiol (120-140 Ci/mmol) was purchased from New England Nuclear (Boston, MA), 17-beta estradiol was purchased from Sigma Chemical Co. (St. Louis, MO), CHAPS and DTT were purchased from Boehringer Mannheim GmbH (W. Germany) and all other reagents were purchased from Sigma.
The human estrogen receptor-alpha cDNA was cloned into a yeast vector termed pYhERα and used to transform wild type yeast strain BJ2168 following the protocol outlined by Pham, T.A., Hwung Y.P., Santiso-Mere, D., McDonnell D.P., O'Malley, B.W., Ligand-Dependent and Independent Function of the Transactivation Regions of the Human Estrogen Receptor in Yeast, Mol. Endocrinol. 1992, 6, 1043-1050, hereby incorporated by reference. The yeast was induced with copper for 16 hours after which the cells were harvested, washed and the receptor extract prepared in cold buffer via a Bead Beater (BioSpec Products , Bartlesville, OK). Aliquots of the receptor typically contained 5-10 mg/ml of total protein and were stored at -80 °C until used. Estradiol or other competing compounds were prepared as 5 mM stock solutions in either 100% ethanol or DMSO and serial dilutions were carried out in 1:1 DMSO-ethanol. The assay buffer consisted of the following: 300 mM potassium chloride, 10 mM Trizma Base, 2 mM DTT and 5 mM CHAPS , pH=7.5 at room temperature.
Receptor assays were performed in a 250 µL final volume containing from 5-10 µg of extract protein, plus 2-3 nM [^3H]-estradiol and varying concentrations of competing ligand (0 to 10,000 nM). Assays were set up using a 96-well minitube system and incubations were carried out at 4 °C for 18 hours. Equilibrium under these conditions of buffer and temperature was achieved by 6-8 hours. Nonspecific binding was defined as that binding remaining in the presence of 1000 nM unlabeled estradiol. At the end of the incubation period, 200 µL of 6.25% hydroxyapatite was added in wash buffer (binding buffer in the absence of DTT but containing 1 mM CHAPS). Specific ligand binding to receptor was determined by a hydroxyapatite-binding assay according to the protocol outlined by Wecksler, W.R., Norman, A.W, An Hydroxylapatite Batch Assay for the Quantitation of 1α, 25-Dihydroxyvitamin D3-Receptor Complexes. Anal. Biochem. 1979, 92, 314-323, hereby incorporated by reference. Hydroxyapatite absorbs the receptor-ligand complex, allowing for the separation of bound from free radiolabeled ligand. The mixture was vortexed, incubated for 10 minutes at 4 °C, centrifuged, and the supernatant was removed. The hydroxyapatite pellet was washed twice more with the wash buffer. The amount of receptor-ligand complex was determined by liquid scintillation counting of the hydroxyapatite pellet after the addition of […] EcoScint A scintillation cocktail from National Diagnostics (Atlanta, GA.).
After correcting for nonspecific binding, IC50 values were determined. […] The IC50 values were determined graphically from a log-logit plot of the data. […] Standards are included in each assay and resulting Ki values are determined by use of a modified Cheng-Prusoff equation and used to calculate Ki values for "unknown analogs", DeBlasi, A., O'Reilly, K., Motulsky, H.J., Calculating Receptor Number from Binding Experiments Using Same Compound As Radioligand and Competitor, TIPS 1989, 10, 227-229, hereby incorporated by reference.

SMILES | Ki [nM]
CNc1ccc(C(c2ccc(NC)cc2)c2cc(Cl)ccc2Cl)cc1 [Example 27, 4',4" bis(methylamino)-2,5-dichlorotriphenylmethane] | > 10000
CNc1ccc(C(c2ccc(N(C)CCOC(C)=O)cc2)c2cc([N+](=O)[O-])ccc2Cl)cc1 (stereo not drawn) [Example 49, 4'-methylamino-4"-(N-(2-acetoxyethyl)-N-methylamino)-2-chloro-5-nitrotriphenylmethane] | > 10000
CNc1ccc(C(c2ccc(N(C)C)cc2)c2cc([N+](=O)[O-])ccc2Cl)cc1 (stereo not drawn) [Example 39, 4'-dimethylamino-4"-methylamino-2-chloro-5-nitrotriphenylmethane] | > 10000
CNc1ccc(C(c2ccc(NC)cc2)c2cc([N+](=O)[O-])ccc2Cl)cc1 [Example 23, 4',4" bis(methylamino)-2-chloro-5-nitrotriphenylmethane] | > 10000
CN(C)c1ccc(C(Oc2ccccc2)c2cc([N+](=O)[O-])ccc2Cl)cc1 (stereo not drawn) [Example 52, phenyl-[(4'-dimethylaminophenyl)-(2-chloro-5-nitrophenyl)methyl] ether] | > 10000
CN(C)c1ccc(C(c2ccc(N(C)CCO)cc2)c2cc([N+](=O)[O-])ccc2Cl)cc1 (stereo not drawn) [Example 42, 4'-dimethylamino-4"-(N-methyl-N-(2-hydroxyethyl)amino)-2-chloro-5-nitrotriphenylmethane] | > 10000
CC(=O)OCCN(C)c1ccc(C(c2ccc(N(C)C)cc2)c2cc([N+](=O)[O-])ccc2Cl)cc1 (stereo not drawn) [Example 51, 4'-dimethylamino-4"-(N-methyl-N-(2-acetoxyethyl)amino)-2-chloro-5-nitrotriphenylmethane] | > 10000
O=[N+]([O-])c1ccc(Cl)c(C(c2ccc(NCc3ccccc3)cc2)c2ccc(NCc3ccccc3)cc2)c1 [Example 36, 4',4" bis(N-benzylamino)-2-chloro-5-nitrotriphenylmethane] | > 10000
CN(C)c1ccc(C(Sc2ccccc2)c2cc([N+](=O)[O-])ccc2Cl)cc1 (stereo not drawn) [Example 54, phenyl-[(4'-dimethylaminophenyl)-(2-chloro-5-nitrophenyl)methyl]thioether] | > 10000
